This is an account of results in ChEMBL document CHEMBL6178017, “Intercepting the Downstream of the Estrogen Receptor Signaling Pathway: Discovery of a Potent and Efficient SRC-3 PROTAC Degrader for Overcoming Endocrine Resistance Breast Cancer” (J Med Chem, 2025).

The nature of data set [1]: Induction of apoptosis in tamoxifen-resistant human LCC2 cells assessed as viable cells at 5 uM incubated for 48 hrs by AnnexinV-FITC/PI staining based flow cytometry (reference value: 88.09%). The class given is functional. To be noted: Tamoxifen-resistant LCC2 cell, read-out: Activity.
Data set [2] is described as follows: Antitumor activity against tamoxifen-resistant human LCC2 cells xenografted in Balb/c mouse assessed as inhibition of tumor growth at 5 uM/Kg, ip administered once every 2 days for 23 days. The settings on record: time 23 day, at 5 µmol/kg. It counts as functional, Tamoxifen-resistant LCC2 cell. (In general: Xenograft models place foreign cells or tissue in a host animal.)

Data set [3] deals with MCF7. As to the kind of experiment: Induction of apoptosis in human MCF7 cells assessed as increase in early apoptotic cells at 1 to 20 uM incubated for 48 hrs by AnnexinV-FITC/PI staining based flow cytometry. The class given is functional, cell-based. To be noted: dose 1-20 µM. A general note: Flow cytometry measures light scatter and fluorescence of single cells or particles in a stream.

The nature of data set [4]: Toxicity against Balb/c mouse xenografted with tamoxifen-resistant human LCC2 cells assessed as effect on body weight at 10 uM/Kg, ip administered once every 2 days for 23 days. The class given is organism-based. The settings on record: in vivo, 552 h, time 23 day.
Data set [5] has as its system MCF7. In words: Induction of cell cycle arrest in human MCF7 cells assessed as accumulation of cells at G1 phase at 5 to 20 uM incubated for 48 hrs by propidium iodide staining based flow cytometry. The class given is functional. To be noted: dose 5-20 µM.
The test system of data set [6] is MCF7. In words: Antiproliferative activity against human MCF7 cells assessed as inhibition of cell growth by CCK8 assay. The class given is functional, cell-based. For orientation: Tetrazolium dyes change colour on reduction, which living cells bring about.
The target in data set [7] is Cereblon/Casein kinase I alpha (Homo sapiens) (UniProt P48729+Q96SW2). As to the kind of experiment: PROTAC activity at CRBN/CK-1 alpha in tamoxifen-resistant human LCC2 cells assessed as degradation of CK-1alpha at 10 uM measured after 36 hrs by diaPASEF-based quantitative proteomics analysis. To be noted: Tamoxifen-resistant LCC2 cell.
Chain of Cereblon/Casein kinase I alpha (Homo sapiens) (P48729 2-337 limits assumed): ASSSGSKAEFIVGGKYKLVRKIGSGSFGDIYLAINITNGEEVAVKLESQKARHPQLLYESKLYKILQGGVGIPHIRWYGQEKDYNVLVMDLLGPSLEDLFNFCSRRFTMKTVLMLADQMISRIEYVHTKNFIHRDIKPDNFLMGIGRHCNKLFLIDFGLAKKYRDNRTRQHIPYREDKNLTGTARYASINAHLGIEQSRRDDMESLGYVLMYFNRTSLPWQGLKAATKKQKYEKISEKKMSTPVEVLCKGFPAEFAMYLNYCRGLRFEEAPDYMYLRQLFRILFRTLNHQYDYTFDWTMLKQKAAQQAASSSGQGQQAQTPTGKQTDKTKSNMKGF
Chain of Cereblon/Casein kinase I alpha (Homo sapiens) (Q96SW2 whole entry partner): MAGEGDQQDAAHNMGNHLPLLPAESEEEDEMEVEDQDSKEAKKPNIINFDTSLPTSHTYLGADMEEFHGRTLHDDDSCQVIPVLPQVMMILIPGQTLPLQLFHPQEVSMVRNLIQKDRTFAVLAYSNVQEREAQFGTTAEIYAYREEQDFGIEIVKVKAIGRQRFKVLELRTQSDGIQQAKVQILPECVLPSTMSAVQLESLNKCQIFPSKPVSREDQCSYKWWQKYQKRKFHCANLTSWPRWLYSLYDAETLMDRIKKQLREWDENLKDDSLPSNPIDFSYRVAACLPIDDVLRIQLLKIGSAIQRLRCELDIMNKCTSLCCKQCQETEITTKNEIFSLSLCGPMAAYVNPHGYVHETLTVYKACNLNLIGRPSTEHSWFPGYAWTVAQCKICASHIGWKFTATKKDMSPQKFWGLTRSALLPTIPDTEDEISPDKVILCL
For data set [8], the system named is Tamoxifen-resistant LCC2 cell. As to the kind of experiment: Upregulation of SRC3 mRNA expression in tamoxifen-resistant human LCC2 cells at 0.01 to 10 uM incubated for 36 hrs by qRT-PCR analysis. It counts as functional, cell-based. To be noted: dose 0.01-10 µM.
Data set [9] can be described thus: Metabolic stability of the compound in human plasma measured after 2 hrs by LC-MS/MS analysis. It counts as ADME, cell-free. To be noted: read-out: Stability.
Data set [10] can be described thus: AUC (0 to infinity) in Balb/c mouse at 4 mg/kg, ip by LC-MS/MS analysis. It counts as ADME, organism-based. To be noted: in vivo.
The nature of data set [11]: Cmax in Balb/c mouse at 2 mg/kg, iv by LC-MS/MS analysis. The class given is ADME, organism-based. The settings on record: in vivo.
The next data set relates to LNCaP. As to the kind of experiment: Antiproliferative activity against human LNCaP cells assessed as inhibition of cell growth by CCK-8 assay. It counts as functional, cell-based.
For data set [12], the target named is T1, Protein cereblon/Nuclear receptor coactivator 3 (Homo sapiens, UniProt Q9Y6Q9+Q96SW2). As to the kind of experiment: PROTAC activity at CRBN/SRC-3 in human MCF7 cells assessed as maximal induction of SRC-3 degradation at 1 uM incubated for 36 hrs by immunoblot analysis. The class given is cell-based.
T1 sequence (Q96SW2 whole entry partner): as above
T1 sequence (Q9Y6Q9 2-1424 limits assumed): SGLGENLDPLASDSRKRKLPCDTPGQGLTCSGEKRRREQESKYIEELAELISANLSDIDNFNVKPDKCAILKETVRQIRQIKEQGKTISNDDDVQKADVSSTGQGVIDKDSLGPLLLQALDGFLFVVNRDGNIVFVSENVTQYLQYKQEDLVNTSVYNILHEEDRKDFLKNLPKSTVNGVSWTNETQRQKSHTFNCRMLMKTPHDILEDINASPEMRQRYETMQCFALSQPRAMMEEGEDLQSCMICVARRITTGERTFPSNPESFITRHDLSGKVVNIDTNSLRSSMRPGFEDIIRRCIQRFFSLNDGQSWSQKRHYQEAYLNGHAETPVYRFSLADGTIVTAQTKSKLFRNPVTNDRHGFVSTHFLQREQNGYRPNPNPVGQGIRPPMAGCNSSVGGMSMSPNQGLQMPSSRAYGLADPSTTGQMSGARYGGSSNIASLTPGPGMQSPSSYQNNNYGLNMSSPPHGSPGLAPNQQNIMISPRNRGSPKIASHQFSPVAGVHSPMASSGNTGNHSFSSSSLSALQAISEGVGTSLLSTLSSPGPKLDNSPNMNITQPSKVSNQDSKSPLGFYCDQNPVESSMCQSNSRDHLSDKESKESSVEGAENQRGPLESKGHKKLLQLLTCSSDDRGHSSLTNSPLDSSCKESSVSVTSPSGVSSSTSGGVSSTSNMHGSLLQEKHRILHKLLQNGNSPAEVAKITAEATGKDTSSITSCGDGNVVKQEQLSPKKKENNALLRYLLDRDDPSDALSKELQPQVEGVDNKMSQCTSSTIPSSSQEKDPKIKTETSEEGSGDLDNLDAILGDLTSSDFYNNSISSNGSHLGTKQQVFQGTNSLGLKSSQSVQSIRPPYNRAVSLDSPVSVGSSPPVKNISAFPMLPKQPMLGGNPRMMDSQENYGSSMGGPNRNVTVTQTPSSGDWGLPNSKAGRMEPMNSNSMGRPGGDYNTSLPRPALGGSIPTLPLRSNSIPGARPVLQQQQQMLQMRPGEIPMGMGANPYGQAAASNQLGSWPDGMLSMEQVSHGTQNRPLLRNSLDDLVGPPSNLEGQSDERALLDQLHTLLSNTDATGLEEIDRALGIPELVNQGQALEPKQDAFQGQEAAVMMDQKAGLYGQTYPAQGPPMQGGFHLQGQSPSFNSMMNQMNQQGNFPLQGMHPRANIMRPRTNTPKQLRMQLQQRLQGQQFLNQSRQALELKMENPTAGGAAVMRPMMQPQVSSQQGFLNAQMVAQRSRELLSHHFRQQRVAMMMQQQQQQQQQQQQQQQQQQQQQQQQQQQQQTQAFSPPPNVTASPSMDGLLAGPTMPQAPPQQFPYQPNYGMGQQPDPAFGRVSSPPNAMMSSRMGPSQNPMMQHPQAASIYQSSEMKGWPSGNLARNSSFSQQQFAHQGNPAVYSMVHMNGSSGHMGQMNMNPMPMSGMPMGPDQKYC
Data set [13] has as its target T1, Protein cereblon/Nuclear receptor coactivator 3. In words: PROTAC activity at CRBN/SRC-3 in human MCF-7 cells harboring Y537S mutant assessed as induction of SRC-3 degradation by measuring downregulation of SRC-3 protein level at 0.1 uM measured after 36 hrs by immunoblot analysis. To be noted: MCF7. The class given is cell-based.
A short description of data set [14]: Induction of apoptosis in tamoxifen-resistant human LCC2 cells assessed as necrotic cells at 5 uM incubated for 48 hrs by AnnexinV-FITC/PI staining based flow cytometry (reference value: 1.16%). The class given is functional, Tamoxifen-resistant LCC2 cell.
Data set [15] in a line: Induction of cell cycle arrest in tamoxifen-resistant human LCC2 cells assessed as accumulation of cells at G1 phase at 10 uM incubated for 48 hrs by propidium iodide staining based flow cytometry (reference value: 78.71%). The class given is functional.
Data set [16] has as its target T1, Protein cereblon/Nuclear receptor coactivator 3. In words: PROTAC activity at CRBN/SRC-3 in tamoxifen-resistant human LCC2 cells assessed as induction of ER-alpha degradation at 5 uM incubated for 24 hrs by immunoblot analysis. The class given is cell-based. The settings on record: Tamoxifen-resistant LCC2 cell.
Data set [17] shares this target. In words: PROTAC activity at CRBN/SRC-3 in human MCF7 cells assessed as induction of SRC-3 degradation at 1 uM preincubated with SI-2 for 2 hrs followed by incubation with compound and measured after 36 hrs by immunoblot analysis. It counts as cell-based.
Data set [18] can be described thus: Induction of apoptosis in tamoxifen-resistant human LCC2 cells assessed as early apoptotic cells at 10 uM incubated for 48 hrs by AnnexinV-FITC/PI staining based flow cytometry (reference value: 5.92%). It counts as functional, Tamoxifen-resistant LCC2 cell.
Data set [19] has as its target T1, Protein cereblon/Nuclear receptor coactivator 3. In words: PROTAC activity at CRBN/SRC-3 in human MCF7 cells assessed as induction of SRC-3 degradation at 1 uM incubated for 24 hrs by immunoblot analysis relative to control. It counts as cell-based.
A short description of data set [20]: Induction of apoptosis in tamoxifen-resistant human LCC2 cells assessed as late apoptotic cells at 20 uM incubated for 48 hrs by AnnexinV-FITC/PI staining based flow cytometry (reference value: 4.83%). The class given is functional, Tamoxifen-resistant LCC2 cell.
Data set [21] is described as follows: Half life in Balb/c mouse at 2 mg/kg, iv by LC-MS/MS analysis. The class given is ADME, organism-based. The settings on record: in vivo.
A short description of data set [22]: Cmax in Balb/c mouse at 20 mg/kg, po by LC-MS/MS analysis. It counts as ADME, organism-based. To be noted: in vivo.
A short description of data set [23]: Induction of cell cycle arrest in tamoxifen-resistant human LCC2 cells assessed as accumulation of cells at S phase at 10 uM incubated for 48 hrs by propidium iodide staining based flow cytometry (reference value: 9.72%). It counts as functional.

Active and inactive are the calls of the source. The rule behind the calls is not given here. Bounds are passed on as bounds.

In general, TGI refers to how far tumour growth fell short of that in controls. A word on the IC50: it is the point on the concentration scale where inhibition reaches its midpoint. As a reminder, the AUC(0-inf) is the area under the concentration-time curve extrapolated to infinity. As usually defined, the Cmax is the highest concentration seen after dosing. As a reminder, the half-life is how long it takes for the measured level to halve. In the case of `C/C(=N\Nc1nc2ccccc2n1C1CN(C2CCN(c3cccc4c3C(=O)N(C3CCC(=O)NC3=O)C4=O)CC2)C1)c1ccccn1` (centres undefined), the viability at 5 µM in data set [1] amounted to 54.6%. Besides, the TGI in data set [2] is given as 54%. Further, the result (with MCF7 [3]; in the data set with MCF7 [5]; in data set [8]; in data set [12]; in [13]; in data set [17]) was Active. Moreover, the Activity result is “Non-toxic” in [4]; 10.46% in [14]; 85.01% in data set [15]; “Active; Higher Efficacy Compared To Fulvestrant At The Same Concentration Observed” in [16]; 24.23% in [18]; 71% in data set [19]. The Activity in data set [20] is 14.47%; in [23] it was 12.41%. In addition, the IC50 was determined as 10 nM in the data set on MCF7 [6] and 1430 nM in the data set with LNCaP. In addition, the outcome in [7] was inactive. Also, in [9], the remaining at 2 h is over 50%. In [10], the AUC(0-inf) came to 55.2 ng·h/mL. For the same molecule, the Cmax stood at 148 ng/mL in data set [11] and 25.4 ng/mL in [22]. This molecule showed a half-life in data set [21] of 3.44 h.
